Assay [1] addresses T1, rat BCAT cytosolic form (Rattus norvegicus, UniProt P54690).
T1 construct: made in house; host or cells: E. coli BL21(DE3)
T1 sequence (P54690 1-411): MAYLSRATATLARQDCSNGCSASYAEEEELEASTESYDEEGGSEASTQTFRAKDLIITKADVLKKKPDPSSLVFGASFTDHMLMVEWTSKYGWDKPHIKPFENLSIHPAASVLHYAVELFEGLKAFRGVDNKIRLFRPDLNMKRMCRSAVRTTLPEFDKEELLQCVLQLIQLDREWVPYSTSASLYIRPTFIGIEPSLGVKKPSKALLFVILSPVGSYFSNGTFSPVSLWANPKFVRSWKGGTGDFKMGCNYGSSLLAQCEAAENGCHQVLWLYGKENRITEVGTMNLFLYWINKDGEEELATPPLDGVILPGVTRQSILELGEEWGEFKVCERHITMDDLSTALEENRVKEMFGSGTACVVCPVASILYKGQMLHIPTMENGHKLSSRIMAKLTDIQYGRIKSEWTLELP
The experiment in a line: In vitro coupled enzyme assay (glutamate dehydrogenase, NADH formation), rat BCATc. The assay is classed as biochemical. Conditions: recombinant rat BCATc, 37° C., 25 mM phosphate buffer pH 7.8; several values in a cell = repeat determinations; read-out: RrBCATc. As to the method:
In vitro enzyme assay—human Branched Chain Amino Acid Aminotransferase cytosolic form (hBCATc) and mitochondrial form (hBCATm) as well as rat BCAT cytosolic form were assayed at 37° C. in 25 mM phosphate buffer pH 7.8. In addition, 2 mM DTT and 12.5 mM […] were added to the assay mixture. A coupling enzyme assay was used to monitor the production of glutamate. The formation of NADH from NAD+ at […] was followed on a 96-well plate Molecular Devices plate reader.
The following components were used in this coupled assay: 4 mM ADP, 1 mM NAD+, 750 μM L-Leucine, 500 μM α-ketoglutarate, 10 μM pyridoxal phosphate, 1 unit glutamate dehydrogenase, and 1.25 μg of the appropriate BCAT enzyme. Inhibitions by compounds were assayed by adding various concentrations to this coupled assay procedure as a DMSO stock up to a 5% v/v DMSO/buffer ratio.
Enzyme Preparation—humanBCATc and ratBCATc were expressed in BL21(DE3) cells. A growing culture of cells was induced with 1 mM IPTG at room temperature overnight. These cells were harvested by centrifugation at 10,000 g for 20 minutes. The supernatant was discarded, and the cells were stored at −80° C. until needed. The protein was purified by the following method. The cell paste was resuspended in extraction buffer (0.1 M phosphate, pH 8.0, with 0.01 M Tris-HCL and 5 mM TCEP and then lysed on a French Press at 1000 psi. The lysate was centrifuged at 10,000 g for 15 minutes, and the pellet was discarded. The supernatant was loaded onto a Hitrap Chelating column previously charged with 0.1 M NiSO4 and washed with 3 to 4 column volumes of extraction buffer. The column was then washed with 0.01 Tris, pH 7.5, 10% glycerol, 150 mM NaCl, 5 mM TCEP for two column volumes. The column was then further washed with two column volumes of 0.1 M phosphate, pH 6.0, 0.01 M Tris, 10% glycerol and 750 mM NaCl. Finally, the column was washed with two column volumes of the same buffer plus 50 mM imidazole. The BCAT enzyme was then eluted with the same buffer but with 350 mM imidazole. The eluant was then dialyzed overnight against 10 mM phosphate buffer pH 8.0, 10% glycerol, and 5 mM TCEP. The dialyzed protein was then loaded onto a Q-sepharose column and eluted using a salt gradient. Active fractions were collected and further purified on a Superose-12 column to yield pure BCAT protein.

Assay [2] has as its target T2, human Branched Chain Amino Acid Aminotransferase cytosolic form (hBCATc) (Homo sapiens, UniProt P54687).
T2 construct: made in house; host or cells: E. coli BL21(DE3)
T2 sequence (P54687 1-386): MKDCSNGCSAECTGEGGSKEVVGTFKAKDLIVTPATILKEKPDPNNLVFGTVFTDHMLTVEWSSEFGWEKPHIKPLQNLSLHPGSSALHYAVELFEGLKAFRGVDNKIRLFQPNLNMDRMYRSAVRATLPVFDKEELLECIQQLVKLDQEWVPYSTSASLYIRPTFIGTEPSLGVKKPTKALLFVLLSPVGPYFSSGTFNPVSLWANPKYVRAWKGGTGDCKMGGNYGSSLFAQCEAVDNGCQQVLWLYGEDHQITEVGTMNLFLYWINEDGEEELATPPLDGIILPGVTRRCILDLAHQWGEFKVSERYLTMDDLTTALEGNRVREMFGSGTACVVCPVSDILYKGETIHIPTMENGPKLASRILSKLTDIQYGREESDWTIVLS
The assay can be described thus: In vitro coupled enzyme assay (glutamate dehydrogenase, NADH formation), human BCATc. Conditions: recombinant human BCATc, 37° C., 25 mM phosphate buffer pH 7.8; several values in a cell = repeat determinations; read-out: RhBCATc. The assay is classed as biochemical. Put shortly: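 At 37 °C in 25 mM phosphate pH 7.8 with 2 mM DTT, 1.25 μg His-tag-purified E. coli-expressed BCAT transaminated 750 μM L-leucine with 500 μM α-ketoglutarate and 10 μM PLP. Glutamate was coupled via glutamate dehydrogenase (1 mM NAD+, 4 mM ADP) to NADH formation at 340 nm. Compounds were added in DMSO up to 5% v/v.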

Regarding `Cc1cccc2cc(C(=O)NNS(=O)(=O)c3ccccc3)oc12` [Example 86, 2-Benzofurancarboxylic acid, 7-methyl-, 2-(phenylsulfonyl)hydrazide], the IC50 in assay [1] turned out to be 0.24 µM; in assay [2], 15.2 µM.
With `Cc1cccc2oc(C(=O)NNS(=O)(=O)c3ccccc3)cc12` [Example 87, 2-Benzofurancarboxylic acid, 4-methyl-, 2-(phenylsulfonyl)hydrazide], the IC50 amounted to 1.16 µM in assay [1] and 41.1 µM in assay [2].
On to `Cc1c(C(=O)NNS(=O)(=O)c2ccccc2)oc2ccccc12` [Example 88, 2-Benzofurancarboxylic acid, 3-methyl-, 2-(phenylsulfonyl)hydrazide], for which the IC50 was found to be 4 µM in assay [1] and 40 µM in assay [2].
For `Cc1ccc2oc(C(=O)NNS(=O)(=O)c3ccccc3)c(C)c2c1` [Example 89, 2-Benzofurancarboxylic acid, 3,5-dimethyl-, 2-(phenylsulfonyl)hydrazide], the IC50 in assay [1] and in assay [2] was over 100 µM in each case.
`Cc1c(C(=O)NNS(=O)(=O)c2ccccc2)oc2ccc(Cl)cc12` [Example 90, 2-Benzofurancarboxylic acid, 5-chloro-3-methyl, 2-(phenylsulfonyl)hydrazide]: the IC50 in assay [1] and in assay [2] was over 100 µM each time.
`Nc1ccc2oc(C(=O)NNS(=O)(=O)c3ccccc3)cc2c1` [Example 91, 2-Benzofurancarboxylic acid, 5-amino-, 2-(phenylsulfonyl)hydrazide]: the IC50 in assay [1] turned out to be 0.11 µM; in assay [2], 19.6 µM.
For `O=C(NNS(=O)(=O)c1ccccc1F)c1ccc2oc3ccccc3c2c1` [Example 92, 2-Dibenzofurancarboxylic acid, 2-[(2-fluorophenyl)sulfonyl]hydrazide] the same measures were 1.1 µM and 12.1 µM.
Regarding `O=C(NNS(=O)(=O)c1c(F)cccc1F)c1ccc2oc3ccccc3c2c1` [Example 93, 2-Dibenzofurancarboxylic acid, 2-(2,6-difluorophenylsulfonyl)hydrazide], the IC50 in assay [1] worked out at 5.9 µM; in assay [2], 63.5 µM.
With `O=C(NNS(=O)(=O)c1ccccc1Br)c1ccc2oc3ccccc3c2c1` [Example 94, 2-Dibenzofurancarboxylic acid, 2-[(2-bromophenyl)sulfonyl]hydrazide], the IC50 in assay [1] is 0.72 µM; in assay [2] it was 5.5 µM.
The like results for `O=C(NNS(=O)(=O)c1cccc(Br)c1)c1ccc2oc3ccccc3c2c1` [Example 95, 2-Dibenzofurancarboxylic acid, 2-[(3-bromophenyl)sulfonyl]hydrazide] were, in that order, 0.3 µM and 2.9 µM.
With `Cc1ccc(S(=O)(=O)NNC(=O)c2ccc3oc4ccccc4c3c2)cc1[N+](=O)[O-]` [Example 96, 2-Dibenzofurancarboxylic acid, 2-[(4-methyl-3-nitrophenyl)sulfonyl]hydrazide], the IC50 in assay [1] was 36.3 µM; in assay [2] it was 51.6 µM.
For `O=C(NNS(=O)(=O)c1cc(C(F)(F)F)ccc1Cl)c1ccc2oc3ccccc3c2c1` [Example 97] the same measures were 36.4 µM and 67.5 µM.
The like results for `O=C(NNS(=O)(=O)c1ccccc1OC(F)(F)F)c1ccc2oc3ccccc3c2c1` [Example 98, 2-Dibenzofurancarboxylic acid, 2-[(2-trifluoromethoxyphenyl)sulfonyl]hydrazide] were, in that order, 0.65 µM and 2.8 µM.
For the compound `O=C(NNS(=O)(=O)c1ccc(Br)cc1OC(F)(F)F)c1ccc2oc3ccccc3c2c1` [Example 99, 2-Dibenzofurancarboxylic acid, 2-[(4-bromo-2-trifluoromethoxyphenyl)sulfonyl]-hydrazide], the figures for the IC50 in assay [1] and in assay [2] were 35.1 µM and 46.3 µM, respectively.
The like results for `O=C(NNS(=O)(=O)c1ccccc1[N+](=O)[O-])c1ccc2oc3ccccc3c2c1` [Example 100, 2-Dibenzofurancarboxylic acid, 2-[(2-nitrophenyl)sulfonyl]hydrazide] were, in that order, 4 µM and 28.1 µM.
For `O=C(O)c1ccc(S(=O)(=O)NNC(=O)c2ccc3oc4ccccc4c3c2)cc1` [Example 101, 2-Dibenzofurancarboxylic acid, 2-[(4-carboxyphenyl)sulfonyl]hydrazide] the same measures were 22 µM and 48.1 µM.
For `COc1cccc2cc(C(=O)NNS(=O)(=O)c3cccc(Cl)c3)oc12` [Example 102, 2-Benzofurancarboxylic acid, 7-methoxy-, 2-[(3-chlorophenyl)sulfonyl]hydrazide] the same measures were 0.37 µM and 6 µM.
In the case of `COc1cccc2cc(C(=O)NNS(=O)(=O)c3cccc(F)c3)oc12` [Example 103, 2-Benzofurancarboxylic acid, 7-methoxy-, 2-[(3-fluorophenyl)sulfonyl]hydrazide], the values for the IC50 in assay [1] and in assay [2] were 0.85 µM and 12 µM, respectively.
For `COc1cccc2cc(C(=O)NNS(=O)(=O)c3cccc(Cl)c3Cl)oc12` [Example 104, 2-Benzofurancarboxylic acid, 7-methoxy-, 2-[(2,3-dichlorophenyl)sulfonyl]-hydrazide] the same measures were 1.4 µM and 23 µM.
For `COc1cccc2cc(C(=O)NNS(=O)(=O)c3ccc(F)c(Cl)c3)oc12` [Example 105, 2-Benzofurancarboxylic acid, 7-methoxy-, 2-[(3-chloro-4-fluorophenyl)sulfonyl]-hydrazide] the same measures were 3.3 µM and 54 µM.
The like results for `COc1ccc(Cl)cc1S(=O)(=O)NNC(=O)c1cc2cccc(OC)c2o1` [Example 106, 2-Benzofurancarboxylic acid, 7-methoxy-, 2-[(5-chloro-2-methoxyphenyl)-sulfonyl]hydrazide] were, in that order, 5.6 µM and 42 µM.
As to `COc1ccc(Br)cc1S(=O)(=O)NNC(=O)c1cc2cccc(OC)c2o1` [Example 107, 2-Benzofurancarboxylic acid, 7-methoxy-, 2-[(5-bromo-2-methoxyphenyl)-sulfonyl]hydrazide], the IC50 in assay [1] worked out at 7.5 µM; in assay [2], 41 µM.
For `CCc1ccc(S(=O)(=O)NNC(=O)c2cc3cccc(OC)c3o2)cc1` [Example 108, 2-Benzofurancarboxylic acid, 7-methoxy-, 2-[(4-ethylphenyl)sulfonyl]hydrazide] the same measures were 5.6 µM and 57 µM.
The like results for `COc1cccc(S(=O)(=O)NNC(=O)c2cc3cccc(OC)c3o2)c1` [Example 109, 2-Benzofurancarboxylic acid, 7-methoxy-, 2-[(3-methoxyphenyl)sulfonyl]-hydrazide] were, in that order, 0.46 µM and 9.8 µM.
